From PubChem BioAssay (NCI)
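Compound exposure: 48 hours, 5 concentrations, 96-well plates. GI50: concentration for 50% inhibition of growth. TGI denotes the concentration required for complete inhibition of growth.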

Tests used:
Test in all cases: NCI tumour cell line growth inhibition, 48 h
[1] = test system: KM12 colon
[2] = test system: LOX IMVI melanoma
[3] = test system: ACHN renal
[4] = test system: HS 578T breast
[5] = test system: EKVX NSCLC
[6] = test system: SF-539 CNS
[7] = test system: SK-MEL-5 melanoma
[8] = test system: A549 NSCLC
[9] = test system: LXFL 529 NSCLC
[10] = test system: KM20L2 colon

Row | SMILES | GI50 [1] [µM] | TGI [1] [µM] | GI50 [2] [µM] | TGI [2] [µM] | GI50 [3] [µM] | TGI [3] [µM] | GI50 [4] [µM] | TGI [4] [µM] | GI50 [5] [µM] | TGI [5] [µM] | GI50 [6] [µM] | TGI [6] [µM] | GI50 [7] [µM] | TGI [7] [µM] | GI50 [8] [µM] | TGI [8] [µM] | TGI [9] [µM] | TGI [10] [µM]
1 | O=C(COc1cccc(/C=C2\CSc3ccc(Cl)cc3C2=O)c1)c1ccc(Cl)cc1 | 1.76 | 4.13 | 1.63 | 3.02 | 12.5 | 25 | 2.46 | 6.91 | 10.6 | 38 | 16.8 | 31.2 | 5.33 | 19.6 | 77.6 | > 100 |  | 
2 | CSc1nc2nn(Cc3ccccc3)cc2c(=O)[nH]1 |  | > 100 |  | > 100 |  | > 100 |  |  |  | > 100 |  | > 100 |  | > 100 |  | > 100 | > 100 | > 100
3 | O=C1CC(c2ccccc2)Cc2nc3ccc(Br)cc3cc21 (stereo not drawn) | 0.368 | > 37.7 | 0.746 | > 59.8 | 0.498 | > 100 | 0.408 | > 94.5 | 0.78 | > 100 | 0.226 | 0.693 | 0.342 | 2.22 | 0.378 | > 100 |  | 
4 | CCC1C(C(=O)Nc2ccccc2C)=C(C)NC(C)=C1c1ccccc1C (stereo not drawn) |  | > 100 |  | > 100 |  | > 100 |  |  |  | > 100 |  | > 100 |  | > 100 |  | > 100 | > 100 | > 100
5 | COc1cc([N+](=O)[O-])c(OC)cc1-c1nc2sc(C)cn2c1/C(N)=N/C(=N)N | 2.24 | 11.1 | 30.4 | > 100 | 50.2 | > 100 | 25.2 | 89.2 | 15.1 | 50.9 | 27.3 | > 100 | 28.3 | > 100 | 40.7 | > 100 |  | 
6 | C#Cc1cccc(Nc2ncnc3ccc(OCCCCNCCS(C)(=O)=O)cc23)c1 | 9.74 | > 25 | 4.78 | 11.1 | 0.945 | > 25 | 8.66 | > 23.2 | 0.161 | > 25 | 4.49 | 8.72 | 4.26 | 8.63 | 6.43 | > 25 |  | 
7 | CCn1c2ccccc2c(=O)c2c(OC)ccc(OC)c21 |  | > 100 |  | > 100 |  | > 100 |  |  |  | > 100 |  | > 100 |  |  |  | > 100 | > 100 | > 100
8 | COC1=C(C)C(=O)c2c(c(CCCl)c3n2CCC3OC(C)=O)C1=O (stereo not drawn) | 0.642 | 3.05 | 0.204 | 0.927 | 0.142 | 0.417 | 0.417 | 3.62 | 2.09 | 7.3 | 0.157 | 0.545 | 0.0849 | 0.228 | 0.165 | 0.913 |  | 
9 | O=C(N/C(=C\c1cccc([N+](=O)[O-])c1)c1nc2ccccc2[nH]1)c1ccccc1 |  | > 100 |  |  |  | > 100 |  |  |  | > 100 |  | > 100 |  | > 100 |  | > 100 | > 100 | > 100
10 | C=CC(=O)NC(N)=NC#N |  |  | 129 | 273 |  | 245 |  |  |  |  |  | 303 |  | 301 |  | 345 | 250 | 287
11 | Cc1ccc(C=C2C(Cl)=C(Cl)C(Cl)=C2Cl)cc1 | 1.15 | 2.56 | 0.303 | 0.959 | 0.7 | 1.94 | 0.636 | 7.56 | 1.4 | 4.28 | 1.45 | 2.81 | 1.09 | 2.41 | 1.7 | 3.84 |  | 
12 | O=C(CCc1ccccc1)NS(=O)(=O)c1ccccc1 |  | > 100 |  | > 100 |  | > 100 |  |  |  | > 100 |  | > 100 |  |  |  | > 100 | > 100 | > 100
13 | CC(C)[C@@](O)(c1ccc2cc(OC(F)F)c(OC(F)F)cc2c1)c1cn[nH]n1 | 17.5 | 39.2 | 15.8 | 29.2 | 22.6 | 83.2 | 21.1 | 73.7 | 11 | 29.9 | 16.4 | 32.3 | 14.4 | 27.5 | 17.6 | 38.7 |  | 
14 | COC(=O)[C@]12CC[C@@H](C)[C@H](C)[C@@H]1C1=CC[C@@H]3[C@@]4(C)C[C@@H](OC(=O)/C=C/c5ccccc5)[C@H](O)[C@@](C)(CO)[C@@H]4[C@H](O)C[C@@]3(C)[C@]1(C)CC2 | 2.05 | 5.36 | 1.69 | 3.1 | 3.11 | 11.4 | 1.88 | 4.71 | 2.94 | 11.7 | 2.08 | 4.77 | 1.93 | 4.23 | 3.11 | 12 |  | 
15 | COc1ccc(C2CC(c3ccc(Nc4ccnc5cc(Cl)ccc45)cc3)=NN2C=O)cc1 (stereo not drawn) | 16.5 | > 100 | 2.32 | 15.6 | 7.02 | > 100 | > 100 | > 100 | > 100 | > 100 | > 100 | > 100 | 0.617 | 43.2 | 50.3 | > 100 |  | 
16 | CCOC(=O)C1=C(C)NC(=O)NC1CN1C(=O)c2ccccc2C1=O (stereo not drawn) | > 100 | > 100 | > 100 | > 100 | > 100 | > 100 | > 100 | > 100 | > 100 | > 100 | > 100 | > 100 | > 100 | > 100 | > 100 | > 100 |  | 
17 | O=C1C=CC(=C(c2ccccc2)c2ccc(O)cc2)C=C1 |  | 41.5 |  | 17.9 |  | 39.2 |  | 47.7 |  | 35.9 |  | 30.8 |  | 26.4 |  | 36.8 |  | 
